From patent US8455023B2, “Composition for inhibiting melanogenesis and use thereof” (Kaohsiung Medical University, priority 2010, dated 2013)
Where two headings read alike, the source gives them in different places.

Tests used:
Assay type in all cases: cell-based
[1] = target: T1, tyrosinase (Homo sapiens, UniProt P14679); assay: Tyrosinase activity assay (dopachrome biosynthesis rate, lysate of treated HEMn-MP cells); conditions: for Tyrosinase activity percentage (%): 3 days, control = 100%; for Tyrosinase activity (in words): FIG. 2B
T1 construct: endogenous in cells; host or cells: HEMn-MP human epidermal melanocytes (lysate in 1% Triton X-100/PBS)
T1 sequence (P14679 19-529): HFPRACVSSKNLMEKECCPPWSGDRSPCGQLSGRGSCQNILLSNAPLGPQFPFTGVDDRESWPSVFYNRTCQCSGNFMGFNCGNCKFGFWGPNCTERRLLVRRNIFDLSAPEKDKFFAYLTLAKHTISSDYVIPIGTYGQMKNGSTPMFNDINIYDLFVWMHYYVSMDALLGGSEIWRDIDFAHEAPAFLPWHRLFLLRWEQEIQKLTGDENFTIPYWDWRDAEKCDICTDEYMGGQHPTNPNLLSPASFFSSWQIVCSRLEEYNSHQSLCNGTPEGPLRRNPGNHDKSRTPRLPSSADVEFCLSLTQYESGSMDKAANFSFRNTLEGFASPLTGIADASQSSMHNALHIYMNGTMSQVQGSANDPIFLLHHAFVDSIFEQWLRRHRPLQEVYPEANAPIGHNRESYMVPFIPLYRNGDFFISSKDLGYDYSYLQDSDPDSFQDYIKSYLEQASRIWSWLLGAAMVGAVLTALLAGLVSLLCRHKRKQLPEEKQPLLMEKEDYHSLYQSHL
Experimental: Cultured cells were rinsed with […] resuspend in 1% Triton X-100/PBS. Cell lysate was harvested. L-Dopa and L-tyrosine 10 μl (10 mM in 0.1M PBS, pH 6.8) were added and incubated at 37° C. for 3 hours. After reaction, the OD 490 nm value was measured.

[2] = system: Neonatal foreskin primary human epidermal melanocytes (HEMn-MP); assay: Toxicity assay (MTS) in human melanocytes
Experimental: Neonatal foreskin primary human epidermal melanocytes (HEMn-MP) was purchased from Cascade Biologics™, and cultured in 254 medium (Cascade Biologics™) with human melanocyte growth supplement (HMGS, cat. #S-002-5). Cells were maintained at 37° C. humid environment (5% CO2). Neonatal foreskin primary human epidermal melanocytes (HEMn-MP) were cultured in 24-Well plates at seeding density of 10^5 cells/well.
MTS assay (Mosmann T, Rapid colorimetric assay for cellular growth and survival: application to proliferation and cytotoxicity assays J Immunol Methods 1983 16; 65(1-2):55-63) was used for cell toxicity assay. […] The stimulation of MSH to melanin synthesis was used as a reference for comparison of compound (I) and (II). Control group value was set as 100% which obtained from 3 independent experiments.

[3] = system: Neonatal foreskin primary human epidermal melanocytes (HEMn-MP); assay: Melanin quantitation analysis in HEMn-MP cells; conditions: for Percentage of cellular melanin concentration (%): control = 100%; for Cell melanin content (in words): FIG. 2C
Experimental: Lin's method was used to quantify melanin (Lin et al., Constituents from the Formosan apple reduce tyrosinase activity in human epidermal melanocytes 2007 Phytochemistry Volume 68, Issue 8, Pages 1189-1199). Cells were resuspend in 1N NaOH and dimethyl sulfoxide (DSMO), heated at 80° C. for 1 hour, centrifuged for 10 min at 10,000 rpm, and measured OD 405 nm value of supernatant. As shown in Table 3 and FIG. 2C, the control group value was set as 100%. All results obtained from 3 independent experiments.

[4] = system: Neonatal foreskin primary human epidermal melanocytes (HEMn-MP); assay: Microscopic appearance of HEMn-MP cells (FIG. 3); conditions: high concentrations; 200× bright field; FIGS. 3E and 3J
Text: Microscopic images were taken under 200× magnification bright field view. The arrow head indicates bipolar appearance of neonatal foreskin primary human epidermal melanocyte (HEMn-MP).
Under 200× bright field microscope, the control group and low concentration compound (I) and (II) treated cells (FIGS. 3A, 3H, 3I, 3M and 3N) were lined up tightly showing bipolar appearance.

[5] = reference, concentration 100 μM

## CCCCCCCCCCCCC/C=C1\C(=O)O[C@@](C)(OC)[C@@H]1O [Subamolide A, subamolide A]
[1]; 0.01 μM
  Tyrosinase activity percentage (%): 78.62%
[1]; 0.1 μM (MSH concentration)
  Tyrosinase activity percentage (%): 74.21%
[1]; 1 μM
  Tyrosinase activity percentage (%): 44.03%
[1]; 5 μM
  Tyrosinase activity percentage (%): 7.369%
[1]; 10 μM
  Tyrosinase activity percentage (%): 7.275%
[1]
  Tyrosinase activity (in words): reduced along with elevated concentrations
[2]
  Cell activity (in words): reduced along with higher concentrations
[2]; human, 0.01 μM
  Cell activity percentage (%): 93.41%
[2]; human, 0.1 μM
  Cell activity percentage (%): 85.66%
[2]; human, 1 μM
  Cell activity percentage (%): 73.91%
[2]; human, 5 μM
  Cell activity percentage (%): 54.69%
[2]; human, 10 μM
  Cell activity percentage (%): 44.91%
[3]; 0.01 μM
  Percentage of cellular melanin concentration (%): 84.11%
[3]; 0.1 μM (MSH concentration)
  Percentage of cellular melanin concentration (%): 76.85%
[3]; 1 μM
  Percentage of cellular melanin concentration (%): 66.1%
[3]; 5 μM
  Percentage of cellular melanin concentration (%): 25.12%
[3]; 10 μM
  Percentage of cellular melanin concentration (%): 20.2439%
[3]
  Cell melanin content (in words): cell melanin content decreased
[4]
  Cell appearance under microscope: partial toxicity to cells

## NC(=S)Nc1ccccc1 [N-phenylthiourea, reference compound]
[1]
  Tyrosinase activity (in words): less effective to tyrosinase activity
[1]; [5]
  Tyrosinase activity percentage (%): 71.07%
[2]; 100 μM, MTS, control = 100%
  Cell activity percentage (%): 79.07%
[2]; FIG. 2A
  Cell activity (in words): less effects on cell activity
[3]
  Cell melanin content (in words): reduced melanin content
[3]; [5]
  Percentage of cellular melanin concentration (%): 77.56%

## C=C1OC(=O)/C(=C\CCCCCCCCCCCCC)[C@H]1O [Linderanolide B, linderanolide B]
[1]; 0.01 μM
  Tyrosinase activity percentage (%): 84.15%
[1]; 0.1 μM (MSH concentration)
  Tyrosinase activity percentage (%): 72.96%
[1]; 1 μM
  Tyrosinase activity percentage (%): 45.91%
[1]; 5 μM
  Tyrosinase activity percentage (%): 18.04%
[1]; 10 μM
  Tyrosinase activity percentage (%): 14.59%
[1]
  Tyrosinase activity (in words): reduced along with elevated concentrations
[2]
  Cell activity (in words): reduced along with higher concentrations
[2]; human, 0.01 μM
  Cell activity percentage (%): 94.19%
[2]; human, 0.1 μM
  Cell activity percentage (%): 87.52%
[2]; human, 1 μM
  Cell activity percentage (%): 83%
[2]; human, 5 μM
  Cell activity percentage (%): 62.41%
[2]; human, 10 μM
  Cell activity percentage (%): 54.26%
[3]; 0.01 μM
  Percentage of cellular melanin concentration (%): 89.63%
[3]; 0.1 μM (MSH concentration)
  Percentage of cellular melanin concentration (%): 78.63%
[3]; 1 μM
  Percentage of cellular melanin concentration (%): 67.56%
[3]; 5 μM
  Percentage of cellular melanin concentration (%): 28.93%
[3]; 10 μM
  Percentage of cellular melanin concentration (%): 24.39%
[3]
  Cell melanin content (in words): cell melanin content decreased
[4]
  Cell appearance under microscope: partial toxicity to cells

## O=c1cc(CO)occ1O [Kojic acid, reference compound]
[2]
  Cell activity (in words): less effects on cell activity
[2]; human, 100 μM
  Cell activity percentage (%): 72.87%
[3]
  Cell melanin content (in words): reduced melanin content
[3]; [5]
  Percentage of cellular melanin concentration (%): 66.34%
